Results on 51 molecules are retold here after ChEMBL document CHEMBL1155185, “Design, synthesis, screening, and molecular modeling study of a new series of ROS1 receptor tyrosine kinase inhibitors” (Bioorg Med Chem Lett, 2009).

Sequence of Proto-oncogene tyrosine-protein kinase ROS (Homo sapiens) (P08922 whole entry): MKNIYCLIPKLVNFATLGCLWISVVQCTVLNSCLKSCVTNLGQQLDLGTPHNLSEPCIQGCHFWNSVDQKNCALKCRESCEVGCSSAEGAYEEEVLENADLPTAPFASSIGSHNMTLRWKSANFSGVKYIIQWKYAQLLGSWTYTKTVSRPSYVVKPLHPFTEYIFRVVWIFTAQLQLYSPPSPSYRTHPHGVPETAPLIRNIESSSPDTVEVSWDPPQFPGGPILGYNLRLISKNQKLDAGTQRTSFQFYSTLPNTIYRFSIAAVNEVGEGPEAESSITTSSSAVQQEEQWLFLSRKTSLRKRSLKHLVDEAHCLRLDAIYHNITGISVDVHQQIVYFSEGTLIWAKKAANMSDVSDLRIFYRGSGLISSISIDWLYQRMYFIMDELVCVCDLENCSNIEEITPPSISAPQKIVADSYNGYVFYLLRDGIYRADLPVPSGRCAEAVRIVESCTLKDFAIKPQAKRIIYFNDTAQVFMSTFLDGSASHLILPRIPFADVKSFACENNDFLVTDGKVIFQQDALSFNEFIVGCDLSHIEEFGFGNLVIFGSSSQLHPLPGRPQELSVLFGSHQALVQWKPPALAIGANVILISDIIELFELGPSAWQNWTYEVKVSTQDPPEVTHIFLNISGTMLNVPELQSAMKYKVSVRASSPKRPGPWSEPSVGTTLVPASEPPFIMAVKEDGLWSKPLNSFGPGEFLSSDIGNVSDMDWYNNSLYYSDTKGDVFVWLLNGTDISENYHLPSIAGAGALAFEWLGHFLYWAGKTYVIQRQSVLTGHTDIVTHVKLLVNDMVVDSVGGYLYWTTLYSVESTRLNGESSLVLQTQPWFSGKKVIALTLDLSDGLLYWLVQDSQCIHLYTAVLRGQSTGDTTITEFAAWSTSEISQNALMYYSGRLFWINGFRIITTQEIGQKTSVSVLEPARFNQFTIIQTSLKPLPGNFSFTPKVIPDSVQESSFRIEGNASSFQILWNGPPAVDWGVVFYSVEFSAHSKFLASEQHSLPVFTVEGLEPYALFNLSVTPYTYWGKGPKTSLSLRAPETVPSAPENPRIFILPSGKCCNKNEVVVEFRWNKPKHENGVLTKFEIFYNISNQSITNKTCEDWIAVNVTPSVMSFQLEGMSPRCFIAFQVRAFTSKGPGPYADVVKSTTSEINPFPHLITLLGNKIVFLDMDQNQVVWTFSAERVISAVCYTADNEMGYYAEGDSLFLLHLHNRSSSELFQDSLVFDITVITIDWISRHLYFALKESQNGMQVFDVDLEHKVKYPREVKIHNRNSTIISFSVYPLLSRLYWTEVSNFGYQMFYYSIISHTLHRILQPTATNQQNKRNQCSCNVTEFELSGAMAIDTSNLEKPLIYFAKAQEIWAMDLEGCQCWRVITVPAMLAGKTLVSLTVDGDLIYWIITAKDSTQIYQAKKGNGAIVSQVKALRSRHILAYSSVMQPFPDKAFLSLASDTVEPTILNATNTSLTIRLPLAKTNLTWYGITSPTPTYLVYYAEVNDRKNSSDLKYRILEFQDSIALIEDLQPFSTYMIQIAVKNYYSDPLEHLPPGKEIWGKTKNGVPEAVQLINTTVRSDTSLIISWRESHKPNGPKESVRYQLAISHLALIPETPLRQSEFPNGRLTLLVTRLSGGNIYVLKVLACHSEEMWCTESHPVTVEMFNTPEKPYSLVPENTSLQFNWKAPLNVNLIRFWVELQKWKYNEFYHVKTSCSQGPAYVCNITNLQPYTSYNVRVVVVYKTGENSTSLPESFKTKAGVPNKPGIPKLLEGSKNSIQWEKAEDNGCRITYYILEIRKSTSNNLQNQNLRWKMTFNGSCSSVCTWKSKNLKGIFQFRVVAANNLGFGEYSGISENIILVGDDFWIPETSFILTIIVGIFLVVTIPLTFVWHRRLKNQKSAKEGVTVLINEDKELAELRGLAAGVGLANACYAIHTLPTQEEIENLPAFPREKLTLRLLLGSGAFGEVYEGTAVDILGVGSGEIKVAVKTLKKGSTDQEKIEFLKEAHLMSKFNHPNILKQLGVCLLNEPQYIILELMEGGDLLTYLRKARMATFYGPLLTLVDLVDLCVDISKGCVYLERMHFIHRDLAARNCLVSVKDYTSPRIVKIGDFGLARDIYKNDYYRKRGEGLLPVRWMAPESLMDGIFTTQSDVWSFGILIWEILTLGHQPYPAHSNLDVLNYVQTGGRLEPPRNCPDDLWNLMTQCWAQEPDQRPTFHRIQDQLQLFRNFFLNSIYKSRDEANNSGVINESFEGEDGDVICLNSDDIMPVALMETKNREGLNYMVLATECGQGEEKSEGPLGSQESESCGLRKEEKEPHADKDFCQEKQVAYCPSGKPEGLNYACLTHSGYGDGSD

The assay has as its target Proto-oncogene tyrosine-protein kinase ROS (Homo sapiens) (UniProt P08922). As to the kind of experiment: Inhibition of ROS1 at 20 uM by HotSpot assay.
With `COc1cc(C)cc(-c2c(-c3ccnc(-c4ccccc4)c3)cnn2CC#N)c1`, the inhibition – broadly, how much of the control response was suppressed – is less than 30%.

In turn, `COc1cc(C)cc(-c2nn(CC#N)cc2-c2ccnc(-c3ccc(C(C)=O)cc3)c2)c1` had an inhibition of less than 30%. The figure for `COc1cc(C)cc(-c2nn(CC#N)cc2-c2ccnc(-c3ccccc3C(C)=O)c2)c1` is less than 30%; for `Cc1cc(O)cc(-c2nn(CC#N)cc2-c2ccnc(-c3cccnc3)c2)c1` it is 96%. Under `COc1cc(C)cc(-c2c(-c3ccnc(-c4ccccc4NC(C)=O)c3)cnn2CC#N)c1` stands less than 30%; under `CC(=O)Nc1ccccc1-c1cc(-c2cnn(CC#N)c2-c2cc(C)cc(O)c2)ccn1`, less than 30%. Under `COc1cc(C)cc(-c2c(-c3ccnc(-c4ccc(C#N)cc4)c3)cnn2CC#N)c1` stands less than 30%; under `COc1cc(C)cc(-c2c(-c3ccnc(-c4cccc(C(C)=O)c4)c3)cnn2CC#N)c1`, less than 30%; under `CC(=O)c1cccc(-c2ccc(-c3cn(CC#N)nc3-c3cc(C)cc(O)c3)cn2)c1`, less than 30%. The molecule `Cc1cc(O)cc(-c2c(-c3ccnc(-c4ccc(C#N)cc4)c3)cnn2CC#N)c1` displayed an inhibition of less than 30%. Consider `COc1cc(C)cc(-c2c(-c3ccc(-c4ccccc4C(C)=O)nc3)cnn2CC#N)c1`, for which the inhibition is less than 30%. Under `COc1cc(C)cc(-c2nn(CC#N)cc2-c2ccnc(-c3cccnc3)c2)c1` stands less than 30%; under `COc1cc(C)cc(-c2c(-c3ccnc(-c4ccc(Oc5ccccc5)cc4)c3)cnn2CC#N)c1`, less than 30%. `COc1cc(C)cc(-c2c(-c3ccc(-c4cccc(C(C)=O)c4)nc3)cnn2CC#N)c1` returned an inhibition of less than 30%. The figure for `CC(=O)Nc1cccc(-c2cc(-c3cn(CC#N)nc3-c3cc(C)cc(O)c3)ccn2)c1` is less than 30%.

`COc1cc(C)cc(-c2nn(CC#N)cc2-c2ccc(-c3cccnc3)nc2)c1` displayed an inhibition of less than 30%. The figure for `COc1cc(C)cc(-c2c(-c3ccnc(-c4ccc(C(C)=O)cc4)c3)cnn2CC#N)c1` is less than 30%. Under `Cc1cc(O)cc(-c2nn(CC#N)cc2-c2ccnc(-c3ccc(C#N)cc3)c2)c1` stands less than 30%; under `Cc1cc(O)cc(-c2c(-c3ccnc(-c4cccnc4)c3)cnn2CC#N)c1`, less than 30%; under `COc1cc(C)cc(-c2nn(CC#N)cc2-c2ccnc(-c3ccccc3)c2)c1`, less than 30%. The figure for `CC(=O)c1cccc(-c2cc(-c3cn(CC#N)nc3-c3cc(C)cc(O)c3)ccn2)c1` is less than 30%; for `COc1cc(C)cc(-c2nn(CC#N)cc2-c2ccnc(-c3ccc(C#N)cc3)c2)c1` it is less than 30%; for `Cc1cc(O)cc(-c2nn(CC#N)cc2-c2ccnc(-c3ccccc3)c2)c1` it is less than 30%. Consider `CC(=O)c1ccccc1-c1ccc(-c2cnn(CC#N)c2-c2cc(C)cc(O)c2)cn1`, for which the inhibition was less than 30%. Under `COc1cc(C)cc(-c2nn(CC#N)cc2-c2ccnc(-c3ccccc3NC(C)=O)c2)c1` stands less than 30%; under `CC(=O)c1ccccc1-c1cc(-c2cn(CC#N)nc2-c2cc(C)cc(O)c2)ccn1`, less than 30%.

In the case of `CC(=O)c1ccccc1-c1cc(-c2cnn(CC#N)c2-c2cc(C)cc(O)c2)ccn1`, the inhibition is less than 30%. `Cc1cc(O)cc(-c2c(-c3ccnc(-c4ccc(Oc5ccccc5)cc4)c3)cnn2CC#N)c1` yielded an inhibition of less than 30%.

As for `CC(=O)c1ccc(-c2cc(-c3cn(CC#N)nc3-c3cc(C)cc(O)c3)ccn2)cc1`, the inhibition is less than 30%.

In turn, `COc1cc(C)cc(-c2c(-c3ccnc(-c4ccccc4C(C)=O)c3)cnn2CC#N)c1` came in with an inhibition of less than 30%.

`Cc1cc(O)cc(-c2c(-c3ccnc(-c4ccc(N(C)C)cc4)c3)cnn2CC#N)c1` came in with an inhibition of less than 30%. The figure for `CC(=O)c1cccc(-c2cc(-c3cnn(CC#N)c3-c3cc(C)cc(O)c3)ccn2)c1` is less than 30%; for `Cc1cc(O)cc(-c2nn(CC#N)cc2-c2ccnc(-c3ccc(Oc4ccccc4)cc3)c2)c1` it is less than 30%. Turning to `COc1cc(C)cc(-c2nn(CC#N)cc2-c2ccnc(-c3ccc(N(C)C)cc3)c2)c1`, the inhibition is less than 30%.

As for `COc1cc(C)cc(-c2nn(CC#N)cc2-c2ccc(-c3cccc(C(C)=O)c3)nc2)c1`, the inhibition was less than 30%.

Take `CC(=O)c1cccc(-c2ccc(-c3cnn(CC#N)c3-c3cc(C)cc(O)c3)cn2)c1`: the inhibition is less than 30%. Under `CC(=O)c1ccc(-c2cc(-c3cnn(CC#N)c3-c3cc(C)cc(O)c3)ccn2)cc1` stands less than 30%; under `COc1cc(C)cc(-c2c(-c3ccnc(-c4cccnc4)c3)cnn2CC#N)c1`, less than 30%.

In turn, `CC(=O)Nc1cccc(-c2cc(-c3cnn(CC#N)c3-c3cc(C)cc(O)c3)ccn2)c1` registered an inhibition of less than 30%. In the case of `COc1cc(C)cc(-c2nn(CC#N)cc2-c2ccc(-c3ccccc3C(C)=O)nc2)c1`, the inhibition is less than 30%. In turn, `Cc1cc(O)cc(-c2c(-c3ccnc(-c4ccccc4)c3)cnn2CC#N)c1` showed an inhibition of less than 30%. In turn, `COc1cc(C)cc(-c2c(-c3ccnc(-c4ccc(N(C)C)cc4)c3)cnn2CC#N)c1` came in with an inhibition of less than 30%. Under `Cc1cc(O)cc(-c2nn(CC#N)cc2-c2ccc(-c3cccnc3)nc2)c1` stands less than 30%. Under `COc1cc(C)cc(-c2nn(CC#N)cc2-c2ccnc(-c3ccc(Oc4ccccc4)cc3)c2)c1` stands less than 30%; under `CC(=O)Nc1ccccc1-c1cc(-c2cn(CC#N)nc2-c2cc(C)cc(O)c2)ccn1`, less than 30%; under `COc1cc(C)cc(-c2c(-c3ccc(-c4cccnc4)nc3)cnn2CC#N)c1`, less than 30%.

In turn, `COc1cc(C)cc(-c2c(-c3ccnc(-c4cccc(NC(C)=O)c4)c3)cnn2CC#N)c1` showed an inhibition of less than 30%.

`COc1cc(C)cc(-c2nn(CC#N)cc2-c2ccnc(-c3cccc(NC(C)=O)c3)c2)c1` gave an inhibition of less than 30%. Regarding `COc1cc(C)cc(-c2nn(CC#N)cc2-c2ccnc(-c3cccc(C(C)=O)c3)c2)c1`, the inhibition was less than 30%. As to `Cc1cc(O)cc(-c2nn(CC#N)cc2-c2ccnc(-c3ccc(N(C)C)cc3)c2)c1`, the inhibition was less than 30%.

As for `CC(=O)c1ccccc1-c1ccc(-c2cn(CC#N)nc2-c2cc(C)cc(O)c2)cn1`, the inhibition is less than 30%.
